Measured values published in patent US7713960B2, “Inhibition of the Raf/Mek/P-Erk pathway for treating cancer” (University of South Florida, priority 2005, dated 2010).

Assays:
[1] = tested on: Rap-1; experiment: Rap-1 activation assay, ACHN cells; type: cell-based, human; conditions: 10 μM, 1 hour
Method: The effect of B2AR stimulation on Rap1 was investigated using the following methods: A Rap-1 activation assay kit (Upstate, Temecula, Calif.) was used according to protocol to determine if stimulation of the B2AR by ARA-211, and subsequent downstream signaling resulting in inhibition of P-Erk 1/2, is mediated by activation of Rap-1 directly by the Rap-1 guanine nucleotide exchange factor Epac. […] Cells were incubated with drugs for 1 hour unless noted otherwise. Cells were then lysed, the positive control lysate was incubated with 10 mM EDTA and 100 μM GTPγS and incubated for 30 minutes to load GTP onto Rap-1. Lysates from all samples were then incubated with 25 μg GST-RalGDS-Rap-1 binding domain beads for 45 minutes, washed with assay buffer 3×, resuspended in 40 μl of 2×Laemmli sample buffer and boiled for 5 minutes. Samples were resolved by SDS-PAGE electrophoresis, transferred to nitrocellulose, blotted overnight with 1 μ/ml polyclonal anti-Rap-1, and visualized by chemiluminescence.

[2] = tested on: MDA-MB-231 cells; experiment: Alamar Blue proliferation assay, MDA-MB-231; type: cell-based, human; conditions: MDA-MB-231; with ARA-211
Method: Cell Lines and Transfections—All cell lines used were obtained from American Type Tissue Collection (ATCC), (Manassas, Va.), or from the DCTD Tumor Repository, (Frederick, Md.). Propagation was carried out according to ATCC protocols. Propagation media was obtained from Invitrogen Corporation (Carlsbad, Calif.). DNA transfections were carried out using TransIT-LT1 transfection reagent (Takara Mirus, Madison, Wis.) according to the manufacturer's protocol. Briefly, 4×10^5 MDA-MB-231 cells were grown to approximately 70% confluency in medium supplemented with 10% FBS (Atlanta Biologicals, Atlanta, Ga.) in the absence of antibiotics. For transfection, LT1 was pre-incubated in 200 μl per transfection in Opti-MEM (Invitrogen) for 20 minutes prior to addition of plasmid. […]
Alamar Blue proliferation assay—For proliferation assays using exogenous constitutively activated MEK or the B2AR antagonist ICI-118.551, Alamar Blue metabolism assay used to determine cell viability according to the manufacturers protocol (Biosource, Camarillo, Calif.). […] Media/Alamar Blue was removed from the cells and aliquoted into 96 well plates (100 μl per well) and fluorescence read on a Wallac Victor 2 plate reader at excitation 540 nm, and emission 615 nm.

[3] = tested on: P-Erk 1/2; experiment: P-Erk 1/2 levels (Western blotting), MDA-MB-231; type: cell-based, human; conditions: MDA-MB-231; with ARA-211
Method: Western Blotting—Treated cell samples were lysed in 30 mM HEPES, 10 mM NaCl, 5 mM MgCl2, 25 mM NaF, 1 mM EGTA, 1% Triton-X-100, 10% Glycerol, 2 mM Sodium orthovanidate, 10 μg/mL aprotinin, 10 μg/mL soybean trypsin inhibitor, 25 μg/mL leupeptin, 2 mM phenylmethylsulfonylfluoride (PMSF), 6.4 mg/mL p-nitrophenylphosphate for 30 minutes at 4° C., and proteins run on SDS-PAGE gels then transferred to nitrocellulose membranes. Membranes were blocked in either 5% milk in PBS, pH 7.4, containing 0.1% Tween-20 (PBS-T) or 1% BSA in TBS, pH 7.5, containing 0.1% Tween-20 (TBS-T). Phospho-STAT3 and phospho-AKT antibodies were diluted in 1% BSA in TBS-T while phospho-c-Raf, phospho-Mek, and phospho-p44/p42 MAPK antibodies (Cell Signaling) were diluted in 5% milk in PBS-T for either 1 hour at room temperature or overnight at 4° C. HRP-conjugated secondary antibodies (Jackson ImmunoResearch, West Grove, Pa.) were diluted in 5% milk in PBS-T or TBS-T at a 1:1000 dilution for one hour at room temperature. Western blots results were visualized using enhanced chemiluminescence. Stripping of the membranes for reblotting was done using stripping buffer (62.5 mM Tris pH 7.6, 2% SDS, 0.7% 2-mercaptoethanol) at 50° C. for 30 minutes.

[4] = molecular target: T1, Mek-1 (Homo sapiens, UniProt Q02750); experiment: In vitro kinase assay, Mek-1 immunoprecipitated from MDA-MB-231 cells; type: biochemical; conditions: immunoprecipitated kinase treated in vitro, 10 μM
T1 construct: c-Raf-1 and Mek-1, immunoprecipitated from MDA-MB-231 cells; endogenous in cells; host or cells: MDA-MB-231
T1 sequence (Q02750 whole entry): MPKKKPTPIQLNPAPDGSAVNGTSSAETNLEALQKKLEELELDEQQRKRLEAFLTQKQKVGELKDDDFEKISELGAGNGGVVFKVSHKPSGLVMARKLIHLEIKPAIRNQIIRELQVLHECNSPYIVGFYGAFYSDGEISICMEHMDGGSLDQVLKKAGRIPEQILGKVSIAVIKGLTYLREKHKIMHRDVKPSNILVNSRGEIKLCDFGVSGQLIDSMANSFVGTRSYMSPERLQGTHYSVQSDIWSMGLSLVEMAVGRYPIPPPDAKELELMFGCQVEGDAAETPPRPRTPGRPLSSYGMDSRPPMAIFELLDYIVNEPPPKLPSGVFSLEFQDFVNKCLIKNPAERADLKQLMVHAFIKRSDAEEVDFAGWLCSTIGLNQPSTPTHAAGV
Method: In Vitro Kinase Assays—MDA-MB-231 cells (2×10^6) were lysed for 30 minutes at 4° C. in RIPA-150 buffer (10 mM Tris pH 7.5, 150 mM NaCl, 10% glycerol, 5 mM EDTA, 1% Triton X-100, 0.1% SDS, 100 μM sodium orthovanadate, 1 μM aprotinin, 10 μM leupeptin, 10 μM antipain). Cell debris was pelleted at 13000 rpm for 15 minutes at 4° C. and the lysate was rocked overnight with 10 μg of either c-Raf or MEK antibodies (Santa Cruz Biotechnologies, Santa Cruz, Calif.). 25 μl of protein A/G PLUS agarose (Santa Cruz Biotechnology) was then added and rocked for 4 hours at 4° C. Samples were spun at 2000 rpm for 5 minutes to collect the agarose beads, which were then washed four times with lysis buffer. On the final wash each pellet was divided into 5. […]

Structure (SMILES)	Rap-1 activation (GTP-loaded Rap-1) [1]	other results
CO[C@@H]1[C@@H]2OP(=O)(O)OC[C@H]2O[C@H]1n1c(Sc2ccc(Cl)cc2)nc2c(N)ncnc21 [EPAC activator, 8-(4-chlorophenylthio)-2′-O-methyladenosine-3′,5′-cyclic monophosphate]	activated Rap-1	
CC(C)NCC(O)c1ccc(O)c(O)c1 (stereo not drawn) [isoproterenol]	activated Rap-1	
O=S(=O)(NCCNC/C=C/c1ccc(Br)cc1)c1cccc2cnccc12 [H89]	had no effect on Rap-1 activation	
Cc1ccc(OCC(O)C(C)NC(C)C)c2c1CCC2 (stereo not drawn) [ICI 118, 551]		effect of β2 AR antagonist on ARA-211 inhibition of tumor cell growth [2]: rescued human cancer cells from ARA-211 inhibition of tumor cell growth; effect of β2 antagonist on ARA-211 suppression of P-Erk 1/2 levels [3]: prevented ARA-211 from suppressing P-Erk 1/2 levels
N#CC(=C(/N)Sc1ccccc1N)/C(C#N)=C(\N)Sc1ccccc1N [U-0126]		in vitro Mek-1 kinase activity [4]: blocked
